In patent US20140100290A1, “Method of treating a prostate condition” (priority 2012, published 2014):
Like-named read-outs stand apart in the source and are kept apart here.

Assays:
[1] = tested on: cytochrome c release in PC-3 cells; experiment: Western blot analysis of cytochrome c release in PC-3 cells; assay type: cell-based, Human; conditions: 48 h
Experimental: (§1) Cell Line and Culture Conditions • Human metastatic, androgen insensitive prostate cancer cells, PC-3, were obtained from ATCC (Manassas, Va., USA). Cells were grown in F-12K medium supplemented with 2 mM glutamine, 10% FBS, 100 U/mL penicillin, and 100 μg/mL streptomycin. PC-3 cells were maintained in a humidified atmosphere of 5% CO2 at 37° C. in T-75 flasks and were subcultured when confluent.
Western blotting is a widely used analytical technique for detection of specific proteins separated from one another according to their size by gel electrophoresis. […] Once detected, the target protein will be visualized as a band on a blotting membrane, X-ray film, or an imaging system.
Cytochrome c is a heme-containing component of the electron transport chain in the mitochondrial membrane. […] In order to further confirm that carvacrol induced apoptosis in these cells, the release of cytochrome c from mitochondria into cytosol was analyzed using Western blot analysis in carvacrol-treated cells. […]
After maintaining constant agitation at 4° C. for 30 minutes, lysates were collected in microcentrifuge tubes and centrifuged at 12,000 rpm at 4° C. for 20 minutes. […] Protein concentration was determined using the Pierce® BCA protein assay kit. […] Western blot images are representative of at least 3 independent experiments, while quantification data represent mean±S.E.M. of n≧3 experiments.

PC-3 cells = experiment: XTT cell proliferation (cell viability) assay in PC-3 cells; assay type: cell-based; conditions: Homo sapiens, mean±S.E.M., read-out: IC50 (anti-proliferative activity, XTT)
Experimental: as §1
The anti-proliferative effect of carvacrol was assessed in PC-3 cells using the XTT cell proliferation assay. This assay is a colorimetric assay that is used to measure cell growth and drug sensitivity in tumor cell lines by measuring the internal environment of the proliferating cell, which is more reduced than that of non-proliferating cells. In this assay, the second generation tetrazolium dye, XTT (2,3-bis(2-methoxy-4-nitro-5-sulfophenyl)-5-[(phenylamino)-carbonyl]-2H tetrazolium hydroxide), is reduced to a soluble, brightly orange colored formazan derivative. To improve the sensitivity of XTT assay, PMS (N-methyl dibenzopyrazine methyl sulfate), an intermediate electron carrier is used. This color change is accomplished by breaking apart the positively charged quaternary tetrazole ring. An expansion in the number of viable cells results in an increase in the overall activity of mitochondrial dehydrogenases in the sample. […]
PC-3 cells at a density of 10^4 cells/well were seeded into flat-bottom, 96-well microtiter plates (100 μL/well) and allowed to attach and grow for 24 h. […] After incubation, an orange colored formazan product was formed and the absorbance was measured at 475 nm using BioTek microplate reader. […] Cell viability of the drug-treated cells was calculated as a fraction of solvent control and the anti-proliferative activity of carvacrol was expressed in terms of IC50 values. IC50 values were calculated using GraphPad Prism 4 (Graph Pad Software Inc., Calif., USA), and expressed as the means±S.E.M. of n≧3 experiments (each in triplicate).

Cc1ccc(C(C)C)cc1O [Carvacrol] was tested, and the “cytochrome c levels in cytosol (Western blot)” value ([1]; 10 μM, compared to solvent control) was “Increase in cytochrome c levels in cytosol was observed”, the “cytochrome c levels (Western blot)” value ([1]; 2000 μM, compared to 10 μM carvacrol-treated cells) was “decrease in levels of cytochrome c” and the IC50 (PC-3 cells; 24 hr treatment) was 2250 ± 79.8 µM. For the same compound, the IC50 (PC-3 cells; 48 hr treatment) was 1400 ± 98.2 µM and the IC50 (PC-3 cells; 96 hr treatment) was 1010 ± 63.5 µM.
